The source of these data is patent publication US20010034362A1, “Pyrrolidine derivatives for vision and memory disorders” (Guilford Pharmaceuticals Inc., priority 1998, published 2001).

Where two headings read alike, the source gives them in different places.

Data set [1] has as its system retinal ganglion cell axons. Description: Protection of retinal ganglion cell axons from degeneration following optic nerve transection (Table V). Format: in vivo. As to conditions: ± SEM. The text has this: Efficacy of representative compounds from different immunophilin ligand series in protecing retinal gangiou cell axons from degeneration following optic nerve transection is set forth in Table V.

The nature of data set [2]: Clearance (Table V comments). Format: in vitro ADME.
Data set [3] deals with FKBP12 (Homo sapiens, UniProt P62942). Put plainly: Inhibition of peptidyl-prolyl isomerase (rotamase) activity of FKBP, chymotrypsin-coupled assay, apparent Ki. The format is biochemical. The text has this:
The inhibition of the prolyl peptidyl cis-trans isomerase activity of FKBP may be measured as an indicator of this affinity. Inhibition of the peptidyl-prolyl isomerase (rotamase) activity of the compounds used in the inventive methods and pharmaceutical compositions can be evaluated by known methods described in the literature (Harding et al., Nature, 1989, 341:758-760; Holt et al. J. Am. Chem. Soc., 115:9923-9938). […] The cis-trans isomerization of an alanine-proline bond in a model substrate, N-succinyl-[…]-nitroanilide, is monitored spectrophotometrically in a chymotrypsin-coupled assay, which releases para-nitroanilide from the trans form of the substrate. […] The reaction is initiated by the addition of […] of substrate (succinyl-[…]-nitroanilide, 5 mg/ml in 2.35 mM LiCl in trifluoroethanol).

Where [4] appears, read: apparent Ki, rotamase inhibition, Table A, read-out: K1.
Where [5] appears, read: Table V comments, read-out: Ki rotamase.

FKBP12, sequence (P62942 whole entry, species assumed): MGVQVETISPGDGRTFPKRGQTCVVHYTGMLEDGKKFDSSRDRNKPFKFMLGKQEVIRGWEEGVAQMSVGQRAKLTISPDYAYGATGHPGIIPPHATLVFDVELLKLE

Take `O=C(OCCCc1ccccc1)[C@@H]1CCCN1S(=O)(=O)Cc1ccccc1` [D]: in data set [1], the “RT97 + RGC axon density 14 days after ON transection (% ON axons rescued)” value was 58.4% ± 6.4% SEM.

Consider `CCC(C)(C)C(=O)C(=O)N1CCC[C@H]1C(=O)SCCC(c1ccccc1)c1ccccc1` [M], for which, in data set [2], the Clearance stood at 12.5 µL/min. Moreover, the “RT97 + RGC axon density 14 days after ON transection (% ON axons rescued)” value in data set [1] is recorded as −6.3% + 3.9 SEM.

As for `CCC(C)(C)C(=O)C(=O)N1CCCC[C@H]1C(=O)SCCC(c1ccccc1)c1ccccc1` [K], the Clearance in data set [2] was 5.2 µL/min. Besides, the “RT97 + RGC axon density 14 days after ON transection (% ON axons rescued)” value in data set [1] is on record as 7.8% ± 3.0% SEM.

Turning to `O=C(C(=O)N1CCCC1C(=O)OCCCc1ccccc1)c1cccs1` [Compound 11, 3-phenyl-1-propyl (2S)-1-(1,2-dioxo-2-[2-thienyl])ethyl-2-pyrrolidinecarboxylate], the Ki in data set [3] (setting [4]) is 92 nM.

As to `CCC(C)(C)C(=O)C(=O)N1CCCC1C(=O)OCC=Cc1ccc2c(c1)OCO2` [Compound 6, 3-(4,5-methylenedioxyphenyl)-1-prop-2-(E)-enyl (2S)-1-(3,3-dimethyl-1,2-dioxopentyl)-2-pyrrolidinecarboxylate], the Ki in data set [3] (setting [4]) came out at 160 nM.

For `O=C(OCCCc1cccnc1)[C@@H]1CCCN1C(=S)NC1CCCCC1` [I], in data set [3] (setting [5]), the Ki was determined as 131 nM. The compound further came in with a Clearance in data set [2] of 8.0 µL/min.

In data set [2], `CCC(C)(C)C(=O)C(=O)N1CCC[C@H]1C(=O)CCCCc1cccnc1` [J] gave a Clearance of 1.5 µL/min.

Take `CCC(C)(C)C(=O)C(=O)N1CCC[C@H]1C(=O)O` [L]: in data set [2], the Clearance amounted to 5.2 µL/min. In data set [1], the “RT97 + RGC axon density 14 days after ON transection (% ON axons rescued)” value is reported as 7.8% ± 3.0% SEM.

Regarding `O=C(C(=O)N1CCCC1C(=O)OCCCc1ccccc1)c1nccs1` [Compound 12, 3-phenyl-1-propyl (2S)-1-(1,2-dioxo-2-[2-thiazolyl])ethyl-2-pyrrolidinecarboxylate], the Ki in data set [3] (setting [4]) came out at 100 nM.

As to `O=C(C(=O)N1CCCC1C(=O)OCCCc1ccccc1)c1ccccc1` [Compound 13, 3-phenyl-1-propyl (2S)-1-(1,2-dioxo-2-phenyl)ethyl-2-pyrrolidinecarboxylate], in data set [3] (setting [4]), the Ki stood at 1970 nM.

As to `CCC(C)(C)C(=O)C(=O)N1CCCC1C(=O)OCC=Cc1cc(OC)ccc1OC` [Compound 15, 3-(2,5-dimethoxyphenyl)-1-prop-2-(E)-enyl (2S)-1-(3,3-dimethyl-1,2-dioxopentyl)-2-pyrrolidine-carboxylate], in data set [3] (setting [4]), the Ki came out at 450 nM.

In the case of `O=C(SCCCc1ccccc1)[C@@H]1CCCN1S(=O)(=O)Cc1ccccc1` [C], in data set [3] (setting [5]), the Ki was 107 nM. This compound also gave a Clearance in data set [2] of 31.1 µL/min. The “RT97 + RGC axon density 14 days after ON transection (% ON axons rescued)” value in data set [1] is 60.4% ± 3.1% SEM.

Turning to `CN(C)C(=O)N1CCC[C@H]1C(=O)SCCCc1ccccc1` [N], the Ki in data set [3] (setting [5]) amounted to 722 nM. The Clearance in data set [2] was found to be 21.9 µL/min.

The compound `CCC(C)(C)C(=O)C(=O)N1CCCC1C(=O)OC(CCc1ccccc1)CCc1ccccc1` (stereo not drawn) [E] registered a Clearance in data set [2] of 41.8 µL/min. Further, the “RT97 + RGC axon density 14 days after ON transection (% ON axons rescued)” value in data set [1] was 56.6% ± 9.4% SEM.

For `CCC(C)(C)C(=O)C(=O)N1CCCC1C(=O)OCC=CC1CCCCC1` [Compound 8, 3-cyclohexyl-1-prop-2-(E) -enyl (2S) -1-(3,3-dimethyl-1,2-doxopentyl)-2-pyrrolidinecarboxylate], the Ki in data set [3] (setting [4]) is 600 nM.

With `O=C(SCCCc1ccccc1)[C@@H]1CCCN1C(=O)NC12CC3CC(CC(C3)C1)C2` [B], the Ki in data set [3] (setting [5]) is 149 nM.

`CCC(C)(C)C(=O)C(=O)N1CCCC1C(=O)OCC=Cc1cc(OC)c(OC)c(OC)c1` [Compound 4, 3-(3,4,5-trimethoxyphenyl)-1-prop-2-(E)-enyl (2S)-1-(3,3-dimethyl-1,2-dioxopentyl)-2-pyrrolidine carboxylate]: the Ki in data set [3] (setting [4]) was 65 nM.

For `O=C(C(=O)N1CCCC1C(=O)OCCC(c1ccccc1)c1ccccc1)C1CCCCC1` [Compound 29, 3,3-Diphenyl-1-propyl (2S)-1-cyclohexyl glyoxyl-2-pyrrolidinecarboxylate], the Ki in data set [3] (setting [4]) came to 20 nM.

In the case of `CCC(C)(C)C(=O)C(=O)N1CCC[C@H]1C(=O)OCCCc1ccccc1` [Compound 1, 3-Phenyl-1-propyl (2S)-1-(3,3-dimethyl-1,2-dioxopentyl)-2-pyrrolidinecarboxylate], the Ki in data set [3] (setting [4]) was 42 nM.

Regarding `CCC(C)(C)C(=O)C(=O)N1CCS[C@@H]1C(=O)OCCCc1cccnc1` [F], the Ki in data set [3] (setting [5]) was determined as 272 nM.

As for `O=C(C(=O)N1CCCC1C(=O)OCCC(c1ccccc1)c1ccccc1)c1cccs1` [Compound 30, 3,3-Diphenyl-1-propyl (2S) -1-(2-thienyl) glyoxyl-2-pyrrolidinecarboxylate], the Ki in data set [3] (setting [4]) turned out to be 150 nM.

`CCC(C)(C)C(=O)C(=O)N1CCCC1C(=O)OCC=Cc1ccccc1` [Compound 2, 3-phenyl-1-prop-2-(E)-enyl (2S)-1-(3,3-dimethyl-1,2-dioxopentyl)-2-pyrrolidinecarboxylate]: the Ki in data set [3] (setting [4]) turned out to be 125 nM.
